Test results reported in patent publication US7439052B2, “Method of making modified immunodeficiency virus particles” (Lipid Sciences, priority 2000, dated 2008).

Experiments:
[1] = system: SIVmac239; test: Plasma viral loads in macaques chronically infected with SIVmac239; type: in vivo
Description: (§1) A cohort of highly viremic macaques chronically infected for over two years with SIVmac239 was used as a chronic and pathogenic model of immunodeficiency virus infection. The animals were identified as RDg-7, RJo-6, RMi-7 and RSp-6. To test the effect on these animals of administration of a delipidated immunodeficiency virus composition comprising modified, partially delipidated immunodeficiency viral particles, also referred to as therapeutic vaccine compositions or therapeutic vaccines, autologous immunodeficiency virus was delipidated and administered to the experimental animals following a 30 day antiretroviral therapy (ART) with an antiviral drug PMPA. […] The animals were then subjected to lymph node targeted immunization at monthly intervals with 1, 1 and 10 μg of autologous delipidated SIV virus composition, obtained substantially as described elsewhere herein. Four weeks after the last boost, ART was discontinued and the animals were monitored for virological and immunological parameters.
The virological and immunological parameters were determined substantially as follows. Viral loads, schematically shown in FIGS. 13-18, were analyzed by SIV enzyme immunoassay (EIA) substantially as described elsewhere herein. […] Plates were read at a 450 nm wavelength using an ELISA reader. […]

[2] = system: SIVmac239; test: Absolute CD4 counts in SIV-infected macaques; type: in vivo; conditions: from pre-PMPA levels of <500/μl
Description: as §1

## C[C@H](Cn1cnc2c(N)ncnc21)OCP(=O)(O)O [PMPA]
[1]; macaques chronically infected with SIVmac239
  viral loads after 30 day antiretroviral therapy: less than 80 copies/ml of viral RNA
[1]; reduced from 10^4-10^6
  plasma viral loads under treatment (below the limits of detection): < 10 viral RNA copies/ml
[2]
  absolute CD4 counts: increases in absolute CD4 counts
